{
  "source": "patent US20040028749A1",
  "about": "“Treating inflammation and associated complications” (priority 2000, published 2004)",
  "key": {"tracheal rings": {"system": "tracheal rings", "experiment": "NO-mediated relaxation of preconstricted tracheal rings", "design": "species or system rat", "details": "absence of peroxidases", "description": "Normal rats were sacrificed and their trachea removed. Under the dissecting microscope, each trachea was freed of adventitia and fat tissue. A cylindrical airway segment of 3 mm length was isolated from the midtrachea of each animal and placed in a modified Krebs-Henseleit (KH) solution of the following composition (mM): NaCl, 118.2; NaHCO3, […], 4.6; KH2PO4, 1.2; MgSO4, 1.2; CaCl2 and dextrose, […], with a pH adjusted to 7.4. The solution was continuously aerated with 5% […] balanced with O2. […] Generated forces were continuously monitored and recorded on a rectilinear chart recorder. […]\nA cumulative concentration-response curve to bethanecol (3×10^−8 to 10^−3 M) was obtained for each cylinder. The concentration of bethanecol that elicited 50-75% of maximal response (ED 50-75) was determined. […] The percent relaxation from the precontracted state was calculated for each cylinder. The percent relaxation in response to EFS was calculated from the reduction in tension (in grams) in relation to baseline tension in the precontracted state, each tracheal segment serving as its own control (before and after EFS exposure). […]\nThe effect of peroxidases on the concentration dependence of NO-mediated relaxation of preconstricted tracheal rings was quantified. […]"}, "EPO": {"target": "T1, EPO (Sus scrofa, UniProt P80550)", "T1 construct": "from tissue; host or cells: porcine whole blood (leukocytes/eosinophils)", "T1 sequence (P80550 143-704)": "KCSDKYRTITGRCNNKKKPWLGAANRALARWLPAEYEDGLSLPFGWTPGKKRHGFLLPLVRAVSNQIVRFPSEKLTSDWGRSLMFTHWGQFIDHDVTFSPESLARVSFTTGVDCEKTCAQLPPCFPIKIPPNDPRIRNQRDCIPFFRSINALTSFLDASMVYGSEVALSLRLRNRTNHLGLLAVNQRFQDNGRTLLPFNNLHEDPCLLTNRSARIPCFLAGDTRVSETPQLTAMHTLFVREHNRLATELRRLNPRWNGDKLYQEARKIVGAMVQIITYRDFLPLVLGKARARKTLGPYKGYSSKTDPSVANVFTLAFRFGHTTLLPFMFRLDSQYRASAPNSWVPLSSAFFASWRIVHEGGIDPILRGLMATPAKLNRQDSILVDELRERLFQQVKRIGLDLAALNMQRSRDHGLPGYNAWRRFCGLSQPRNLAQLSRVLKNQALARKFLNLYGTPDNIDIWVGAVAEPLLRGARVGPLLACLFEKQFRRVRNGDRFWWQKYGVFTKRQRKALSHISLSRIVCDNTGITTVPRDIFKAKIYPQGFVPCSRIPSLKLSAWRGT", "experiment": "Stopped-flow kinetics of NO with EPO compounds I and II", "assay_type": "biochemical", "details": "10 μM H2O2", "method": "[…] EPO was isolated from porcine whole blood obtained fresh at the slaughterhouse as described by Jorg et al. (1982) Biochim Biophys Acta 701:185-191. EPO was assayed by guaiacol oxidation (see Klebanoff et al. (1984) Methods Enzymol. 105:399-403). […] The concentration of the MPO dimer was calculated as half the indicated concentration of heme-like chromophore. Bovine LPO was obtained from Worthington Biochemistry Corporation (Lakewood, N.J.) and used without further purification.\nStopped-flow spectroscopy was used to investigate how NO interacts with intermediate forms of EPO and LPO during steady-state catalysis. […] The time courses for the formation and decay of compound II of both EPO and LPO in the absence of NO were examined by monitoring the absorbance change at 445 nm for EPO and at 430 nm for LPO. For both enzymes, the changes in absorbance that took place in the first 2 seconds of the reactions are shown and are attributed to the buildup of compound II. […] The subsequent decreases in absorbance at 455 and 430 nm observed for both enzymes were also fit to a single-exponential function with a rate constant of 0.005 s^−1 for EPO and 0.0005 s^−1 for LPO. […]\nThe addition of NO to reaction mixtures of EPO or LPO results in dramatic effects on the rates of compound II buildup, duration, and decay, as assessed by stopped-flow spectroscopy. […]"}},
  "data": [
    {"smiles": "[N]=O", "note": "[NO, nitric oxide]", "values": [
      {"measurement": "NO concentration at which relaxation reached a maximum", "setting": "tracheal rings", "result": "~4", "unit": "µM"},
      {"measurement": "enhancement of rate of EPO compound II accumulation", "setting": "EPO", "result": "~25", "unit": "fold"}
    ]}
  ]
}
